Format in all cases: toxicity, cell-based
For one data set, the system named is HEK-293T. Description: Incucyte cell viability with HEK293T. The conditions noted are these: human, 10 µM, compound concentration 10 uM.
In a further data set the test system is Fibroblast. As to the kind of experiment: Incucyte cell viability with human fibroblast. The conditions noted are these: 10 µM, compound concentration 10 uM.
For the next data set, the system named is U2OS. Description: Incucyte cell viability with U2OS. The conditions noted are these: human, 10 µM, compound concentration 10 uM.
The mark [1] stands for this setting: 0 h, replicate number 1, timepoint 0 hours.
Setting [2] is: 6 h, replicate number 1, timepoint 6 hours.
The mark [3] stands for this setting: 12 h, replicate number 1, timepoint 12 hours.
Where [4] appears, read: 18 h, replicate number 1, timepoint 18 hours.
[5] abbreviates: 18 h, replicate number 2, timepoint 18 hours.
Where [6] appears, read: 24 h, replicate number 1, timepoint 24 hours.
Setting [7] is: 24 h, replicate number 2, timepoint 24 hours.
The mark [8] stands for this setting: 6 h, replicate number 2, timepoint 6 hours.
Setting [9] is: 12 h, replicate number 2, timepoint 12 hours.
The mark [10] stands for this setting: 0 h, replicate number 2, timepoint 0 hours.
Also: filed as whole numbers so only -1 and 0 and 1 occur.

Turning to `CC(C)(N)C(=O)N[C@H](COCc1ccccc1)C(=O)N1CCC2(CC1)CN(S(C)(=O)=O)c1ccccc12.CS(=O)(=O)O` [IBUTAMOREN MESYLATE], the “Growth Rate” value with HEK-293T (setting [1]) is listed as 0; in the data set with HEK-293T (setting [2]), 0; in the data set with HEK-293T (setting [3]) it was 1; in the data set on HEK-293T (setting [4]) it was 0; in the data set with HEK-293T (setting [5]) it was 1; in the data set with HEK-293T (setting [6]) it was 0. Also, the “Growth Rate” value is listed as 1 with HEK-293T (setting [7]); 1 with Fibroblast (setting [1]); 0 with Fibroblast (setting [2]); 1 in the data set with Fibroblast (setting [8]); 0 with Fibroblast (setting [3]); 1 with Fibroblast (setting [9]). The “Growth Rate” value in the data set with Fibroblast (setting [4]) is listed as 0; in the data set on Fibroblast (setting [6]) it was 0; with U2OS (setting [8]), 1; with U2OS (setting [9]) it was 1; with U2OS (setting [4]), 1; with U2OS (setting [6]), 1.

Regarding `CN(C)CCCN1c2ccccc2CCc2ccccc21.Cl` [IMIPRAMINE HYDROCHLORIDE], the “Growth Rate” value in the data set on HEK-293T (setting [10]) was 1; in the data set with HEK-293T (setting [2]), 0; in the data set on HEK-293T (setting [3]), 0; in the data set with HEK-293T (setting [4]) it was 0; in the data set with HEK-293T (setting [6]), 0; in the data set on Fibroblast (setting [1]), 0. In addition, the “Growth Rate” value in the data set on Fibroblast (setting [2]) was found to be 0; with Fibroblast (setting [3]), 0; in the data set on Fibroblast (setting [4]), 1; in the data set with Fibroblast (setting [5]) it was 0; in the data set on Fibroblast (setting [6]), 0; with U2OS (setting [10]) it was 0. Besides, the “Growth Rate” value in the data set on U2OS (setting [3]), in the data set on U2OS (setting [4]) and with U2OS (setting [6]) was 1 each time.

As to `CC(C)(O)c1cncc(-c2nc3ccc(F)cc3n2C2CC2)c1` [MSD-CYP11B2], the “Growth Rate” value in the data set with HEK-293T (setting [1]) is listed as 0; in the data set on HEK-293T (setting [10]), 1; with HEK-293T (setting [3]), 0; with HEK-293T (setting [4]) it was 0; in the data set with HEK-293T (setting [5]), 1; in the data set with HEK-293T (setting [6]), 0. The “Growth Rate” value is listed as 1 in the data set on Fibroblast (setting [2]); 0 in the data set on Fibroblast (setting [8]); 1 in the data set with Fibroblast (setting [3]); 1 in the data set with Fibroblast (setting [4]); 0 in the data set with Fibroblast (setting [5]); 1 in the data set with Fibroblast (setting [7]). For the same compound, the “Growth Rate” value in the data set with U2OS (setting [1]) turned out to be 0; in the data set with U2OS (setting [2]), 0; with U2OS (setting [8]) it was 1; in the data set on U2OS (setting [3]) it was 0; in the data set with U2OS (setting [9]) it was 1; in the data set with U2OS (setting [4]), 0. Also, the “Growth Rate” value with U2OS (setting [5]) and in the data set with U2OS (setting [6]) was 1 in each case.

`N#CC1(c2ccccn2)CCN(Cc2cc(C(=O)O)c(=O)n3ccccc23)CC1` [MSD-M1PAM]: the “Growth Rate” value with HEK-293T (setting [1]) was 1; with HEK-293T (setting [10]) it was 0; in the data set on HEK-293T (setting [2]), 1; in the data set with HEK-293T (setting [3]), 1; in the data set on HEK-293T (setting [4]), 1; in the data set with HEK-293T (setting [6]), 1. Moreover, the “Growth Rate” value with HEK-293T (setting [7]) was determined as 0; in the data set with Fibroblast (setting [1]), 0; in the data set with Fibroblast (setting [2]), 0; in the data set on Fibroblast (setting [3]), 0; with Fibroblast (setting [4]) it was 0; in the data set on Fibroblast (setting [5]), 1. Also, the “Growth Rate” value is listed as 0 in the data set on Fibroblast (setting [6]); 1 in the data set on U2OS (setting [10]); 0 with U2OS (setting [2]); 0 in the data set on U2OS (setting [3]); 0 with U2OS (setting [4]); 1 with U2OS (setting [5]). Also, the “Growth Rate” value in the data set with U2OS (setting [6]) came to 0; in the data set with U2OS (setting [7]) it was 1.

Regarding `c1cc(CN2CCCNCCNCCCNCC2)ccc1CN1CCCNCCNCCCNCC1` [PLERIXAFOR], the “Growth Rate” value with HEK-293T (setting [1]) was determined as 1; in the data set on HEK-293T (setting [10]), 0; in the data set with HEK-293T (setting [2]), 0; in the data set with HEK-293T (setting [8]) it was 1; in the data set with HEK-293T (setting [3]) it was 0; with HEK-293T (setting [4]), 0. The “Growth Rate” value with HEK-293T (setting [6]) turned out to be 0; in the data set on Fibroblast (setting [1]), 0; with Fibroblast (setting [10]) it was 1; with Fibroblast (setting [2]), 1; in the data set on Fibroblast (setting [8]), 0; in the data set with Fibroblast (setting [3]), 0. Moreover, the “Growth Rate” value in the data set on Fibroblast (setting [4]) is given as 1; in the data set on Fibroblast (setting [5]), 0; in the data set with Fibroblast (setting [6]) it was 0; with U2OS (setting [2]), 0; in the data set with U2OS (setting [3]), 1; in the data set with U2OS (setting [9]), 0. Also, the “Growth Rate” value with U2OS (setting [4]) is 1; in the data set with U2OS (setting [5]) it was 0; with U2OS (setting [6]), 1; with U2OS (setting [7]) it was 0.

As to `COc1ncc(F)cc1CNc1ccc(Cc2c[nH]c3ncc(C)cc23)c(F)n1` [PLX-5622], the “Growth Rate” value in the data set on HEK-293T (setting [1]) is given as 0; in the data set with HEK-293T (setting [10]) it was 1; with HEK-293T (setting [2]), 1; with HEK-293T (setting [3]), 1; with HEK-293T (setting [4]) it was 1; with HEK-293T (setting [6]) it was 1. The “Growth Rate” value in the data set on HEK-293T (setting [7]) was determined as 0; with Fibroblast (setting [10]) it was 1; in the data set with Fibroblast (setting [2]), 1; in the data set with Fibroblast (setting [8]) it was 0; in the data set on Fibroblast (setting [3]), 1; with Fibroblast (setting [9]), 0. In addition, the “Growth Rate” value is recorded as 0 in the data set with Fibroblast (setting [4]); 1 with Fibroblast (setting [5]); 0 in the data set with Fibroblast (setting [6]); 0 with U2OS (setting [10]); 0 with U2OS (setting [2]); 0 in the data set with U2OS (setting [3]). Also, the “Growth Rate” value in the data set on U2OS (setting [4]) and in the data set on U2OS (setting [6]) was 0 each time.

Regarding `CC(C)NCC(O)COc1cccc2ccccc12.Cl` (stereo not given) [PROPRANOLOL HYDROCHLORIDE], the “Growth Rate” value with HEK-293T (setting [10]) came out at 0; with HEK-293T (setting [2]) it was 0; in the data set with HEK-293T (setting [8]), 1; in the data set with HEK-293T (setting [3]), 0; with HEK-293T (setting [4]) it was 0; with HEK-293T (setting [6]), 0. The “Growth Rate” value with Fibroblast (setting [1]) was 0; in the data set with Fibroblast (setting [2]) it was 1; in the data set with Fibroblast (setting [8]), 0; in the data set on Fibroblast (setting [3]), 1; in the data set on Fibroblast (setting [9]), 0; with Fibroblast (setting [4]), 1. The “Growth Rate” value in the data set with Fibroblast (setting [5]) stood at 0; with Fibroblast (setting [6]) it was 1; in the data set with Fibroblast (setting [7]), 0; with U2OS (setting [1]), 0; in the data set on U2OS (setting [2]), 0; in the data set on U2OS (setting [3]), 1. Also, the “Growth Rate” value in the data set with U2OS (setting [4]) and with U2OS (setting [6]) was 1 each time.

As to `NC(=O)[C@@H]1CCCN1C(=O)[C@H](Cc1cnc[nH]1)NC(=O)[C@@H]1CCC(=O)N1` [PROTIRELIN], the “Growth Rate” value in the data set on HEK-293T (setting [1]) was determined as 0; with HEK-293T (setting [2]), 1; with HEK-293T (setting [3]) it was 1; with HEK-293T (setting [4]), 1; in the data set on HEK-293T (setting [6]), 1; in the data set on HEK-293T (setting [7]) it was 0. Further, the “Growth Rate” value in the data set on Fibroblast (setting [1]) worked out at 0; in the data set on Fibroblast (setting [10]), 1; in the data set on Fibroblast (setting [8]), 0; in the data set on Fibroblast (setting [9]), 1; in the data set on Fibroblast (setting [4]), 1; in the data set with Fibroblast (setting [5]), 0. The “Growth Rate” value in the data set with Fibroblast (setting [6]) is listed as 1; in the data set with Fibroblast (setting [7]), 0; with U2OS (setting [1]), 0; with U2OS (setting [2]), 1; in the data set on U2OS (setting [8]), 0; with U2OS (setting [3]), 0. The “Growth Rate” value in the data set with U2OS (setting [4]) was determined as 0; in the data set on U2OS (setting [5]), 1; with U2OS (setting [6]), 0.

In the case of `CCN1CCC[C@H]1CNC(=O)c1c(OC)ccc(Br)c1OC` [REMOXIPRIDE], the “Growth Rate” value in the data set with HEK-293T (setting [1]) is reported as 0; with HEK-293T (setting [2]), 1; with HEK-293T (setting [3]), 1; in the data set with HEK-293T (setting [4]), 1; with HEK-293T (setting [6]) it was 1; in the data set on Fibroblast (setting [1]), 0. Moreover, the “Growth Rate” value in the data set on Fibroblast (setting [8]) turned out to be 0; in the data set on Fibroblast (setting [9]) it was 0; with Fibroblast (setting [4]), 1; with Fibroblast (setting [5]) it was 0; in the data set with Fibroblast (setting [6]), 1; in the data set on Fibroblast (setting [7]), 0. Also, the “Growth Rate” value is 1 with U2OS (setting [8]); 0 in the data set with U2OS (setting [3]); 1 in the data set with U2OS (setting [9]); 0 in the data set with U2OS (setting [4]); 1 with U2OS (setting [5]); 0 with U2OS (setting [6]). Also, the “Growth Rate” value in the data set with U2OS (setting [7]) stood at 1.

These data come from ChEMBL document CHEMBL4689842, “EUbOPEN Chemogenomics Library wave 1” (2021).
